Molecular target: human AMPK (full-length γ1, β1 and α1 subunits) (Homo sapiens (Human), UniProt Q13131+Q9Y478)
Assay: AMPK in vitro biochemical assay (33P-based, SAMS peptide, PP2A dephosphorylation)
Settings: for EC50: activation of phosphorylated AMPK, 33P-ATP, SAMS peptide, PP2A treatment, 4-parameter fit; for Emax / Maximum: counts as % of positive control wells (enzyme, allosteric activator or AMP, PP2A and substrate); for Emax: read-out: Maximum
Outline: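 Phosphorylated full-length α1β1γ1 AMPK (E. coli-expressed, His-purified, gel-filtered) preincubated 15 min RT with compound in HEPES pH 7.5, 10 mM MgCl2 buffer, then PP2A added to dephosphorylate pThr172.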

Sequence of human AMPK (full-length γ1, β1 and α1 subunits) (Q13131 whole entry): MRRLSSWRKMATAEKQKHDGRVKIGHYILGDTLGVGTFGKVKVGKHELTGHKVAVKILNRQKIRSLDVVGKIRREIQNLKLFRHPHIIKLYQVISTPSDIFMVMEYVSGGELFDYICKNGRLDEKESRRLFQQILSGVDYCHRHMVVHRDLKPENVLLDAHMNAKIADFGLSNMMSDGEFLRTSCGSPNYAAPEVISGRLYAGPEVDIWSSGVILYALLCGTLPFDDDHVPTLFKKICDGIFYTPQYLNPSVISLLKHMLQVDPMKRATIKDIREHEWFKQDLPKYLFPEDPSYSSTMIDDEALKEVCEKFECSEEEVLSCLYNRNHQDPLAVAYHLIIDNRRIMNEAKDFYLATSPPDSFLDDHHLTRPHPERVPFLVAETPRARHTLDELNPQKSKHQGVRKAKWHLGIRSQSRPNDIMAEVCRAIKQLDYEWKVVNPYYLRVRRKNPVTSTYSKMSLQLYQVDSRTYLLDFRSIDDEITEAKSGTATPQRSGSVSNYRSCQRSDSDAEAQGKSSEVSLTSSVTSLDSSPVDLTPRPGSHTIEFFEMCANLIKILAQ
Sequence of human AMPK (full-length γ1, β1 and α1 subunits) (Q9Y478 whole entry): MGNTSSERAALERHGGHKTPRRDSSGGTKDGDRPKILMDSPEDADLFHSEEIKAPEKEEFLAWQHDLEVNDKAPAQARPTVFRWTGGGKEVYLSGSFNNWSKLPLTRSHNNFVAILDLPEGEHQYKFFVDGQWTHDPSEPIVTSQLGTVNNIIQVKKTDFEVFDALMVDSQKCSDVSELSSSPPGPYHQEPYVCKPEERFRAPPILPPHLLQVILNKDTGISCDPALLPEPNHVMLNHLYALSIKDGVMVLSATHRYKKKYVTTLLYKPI
Sequence of human AMPK (full-length γ1, β1 and α1 subunits) (P54619 whole entry partner): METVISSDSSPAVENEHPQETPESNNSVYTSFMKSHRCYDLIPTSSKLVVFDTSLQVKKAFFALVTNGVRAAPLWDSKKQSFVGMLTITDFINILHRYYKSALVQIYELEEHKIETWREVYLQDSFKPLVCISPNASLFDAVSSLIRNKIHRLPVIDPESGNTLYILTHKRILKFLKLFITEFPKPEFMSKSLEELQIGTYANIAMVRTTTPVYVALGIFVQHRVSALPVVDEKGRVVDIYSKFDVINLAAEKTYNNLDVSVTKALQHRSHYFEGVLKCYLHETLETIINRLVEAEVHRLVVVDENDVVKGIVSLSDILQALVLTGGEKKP

Compound | EC50 [nM] | Emax [%] | Maximum [%]
O=C(O)c1n[nH]c2cc(Cl)c(-c3ccc4c(c3)OCCO4)cc12 [Example 121, 6-Chloro-5-(2,3-dihydrobenzo[b][1,4]dioxin-6-yl)-1H-indazole-3-carboxylic acid] | 369 | 102 | –
NC(=O)C1(c2ccc(-c3cc4c(C(=O)O)n[nH]c4cc3Cl)cc2)CCC1 [Example 122, 5-(4-(1-Carbamoylcyclobutyl)phenyl)-6-chloro-1H-indazole-3-carboxylic acid] | 160 | 75 | –
NC(=O)Cc1ccc(-c2cc3c(C(=O)O)n[nH]c3cc2Cl)cc1 [Example 123, 5-(4-(2-Amino-2-oxoethyl)phenyl)-6-chloro-1H-indazole-3-carboxylic acid] | 100 | 57 | –
COC(C)c1ccc(-c2cc3c(C(=O)O)n[nH]c3cc2Cl)cc1 (stereo not drawn) [Example 125, 6-Chloro-5-(4-(1-methoxyethyl)phenyl)-1H-indazole-3-carboxylic acid] | 132 | 90 | –
O=C(O)c1n[nH]c2cc(Cl)c(-c3ccc(C4CC(O)C4)cc3)cc12 [Example 126, 6-Chloro-5-(4-((1R,3R)-3-hydroxycyclobutyl)phenyl)-1H-indazole-3-carboxylic acid] | – | – | 110
O=S(=O)(O)c1c[nH]c2cc(Cl)c(-c3ccc(-c4ccccc4O)cc3)cc12 [Example 133, 6-Chloro-5-(2′-hydroxy-[1,1′-biphenyl]-4-yl)-1H-indole-3-sulfonic acid] | > 50000 | – | –
O=S(=O)(O)c1c[nH]c2cc(Cl)c(-c3ccc(C4CCOCC4)cc3)cc12 [Example 134, 6-Chloro-5-(4-(tetrahydro-2H-pyran-4-yl)phenyl)-1H-indole-3-sulfonic acid] | 82.8 | 16 | –
O=C(O)c1c[nH]c2cc(Cl)c(-c3ccc4c(c3)OC[C@H](CO)O4)cc12 [Example 144, 6-chloro-5-[(2S)-2-(hydroxymethyl)-2,3-dihydro-1,4-benzodioxin-6-yl]-1H-indole-3-carboxylic acid] | 236 | 119 | –
COc1cc(-c2c(F)cc3[nH]cc(C(=O)O)c3c2F)ccc1C1(O)CCC1 [Example 145] | 57.9 | 65.2 | –
COc1nc(-c2cc3c(C(=O)O)c[nH]c3cc2Cl)ccc1N1CCC(O)C1 (stereo not drawn) [Example 149, 6-chloro-5-[5-(3-hydroxypyrrolidin-1-yl)-6-methoxypyridin-2-yl]-1H-indole-3-carboxylic acid] | 76.9 | 88.9 | –
O=C(O)c1c[nH]c2cc(F)c(-c3ccc(C4CCCO4)cc3)c(F)c12 (stereo not drawn) [Example 152, 4,6-difluoro-5-[4-(tetrahydrofuran-2-yl)phenyl]-1H-indole-3-carboxylic acid] | – | 112 | –
O=C(O)c1c[nH]c2cc(F)c(-c3ccc(C4CCCO4)cc3)c(F)c12 (stereo not drawn) [Example 153, 4,6-difluoro-5-[4-(tetrahydrofuran-2-yl)phenyl]-1H-indole-3-carboxylic acid] | – | – | 112.3
O=C(O)c1c[nH]c2cc(Cl)c(-c3ccc(OCCCC4COC4)cc3)cc12 [Example 157, 6-chloro-5-(4-(3-(oxetan-3-yl)propoxy)phenyl)-1H-indole-3-carboxylic acid] | 50.1 | 96.1 | –
COC[C@@H](C)Oc1ccc(-c2cc3c(C(=O)O)c[nH]c3cc2Cl)cc1 [Example 158, 6-chloro-5-(4-{[(2R)-1-methoxypropan-2-yl]oxy}phenyl)-1H-indole-3-carboxylic acid] | 125 | 146 | –

Continued by falling EC50, values first:

EC50 [nM] | Emax [%] | Maximum [%] | Compound
40.4 | 117 | – | O=C(O)c1c[nH]c2cc(Cl)c(-c3ccc([C@H]4C[C@H](O)C4)cc3)cc12 [Example 138, 6-Chloro-5-[4-(trans-3-hydroxycyclobutyl)phenyl]-1H-indole-3-carboxylic acid]
39.3 | 100 | – | O=C(O)c1c[nH]c2cc(Cl)c(-c3ccc(C4CCOCC4)cc3)cc12 [Example 136, 6-Chloro-5-[4-(tetrahydro-2H-pyran-4-yl)phenyl]-1H-indole-3-carboxylic acid]
35.3 | 119 | – | COc1cc(-c2cc3c(C(=O)O)c[nH]c3cc2Cl)ccc1[C@H]1C[C@H](O)C1 [Example 146, 6-chloro-5-[4-(trans-3-hydroxycyclobutyl)-3-methoxyphenyl]-1H-indole-3-carboxylic acid]
31.9 | 98.9 | – | O=C(O)c1c[nH]c2cc(Cl)c(-c3ccc(OCCC4COC4)cc3)cc12 [Example 156, 6-chloro-5-(4-(2-(oxetan-3-yl)ethoxy)phenyl)-1H-indole-3-carboxylic acid]
26.8 | – | – | O=C(O)c1n[nH]c2cc(Cl)c(-c3ccc([C@H]4C[C@H](O)C4)cc3)cc12 [Example 126, 6-Chloro-5-(4-((1R,3R)-3-hydroxycyclobutyl)phenyl)-1H-indazole-3-carboxylic acid]
21.5 | 92.9 | – | O=C(O)c1c[nH]c2cc(Cl)c(-c3ccc(C4(CO)CCC4)c(F)c3)cc12 [Example 142, 6-chloro-5-{3-fluoro-4-[1-(hydroxymethyl)cyclobutyl]phenyl}-1H-indole-3-carboxylic acid]
19.8 | 70 | – | O=C(O)c1n[nH]c2cc(Cl)c(-c3ccc(N4CCOCC4)cc3)cc12 [Example 128, 6-Chloro-5-(4-morpholinophenyl)-1H-indazole-3-carboxylic acid]
17.9 | 95 | – | COc1cc(-c2cc3c(C(=O)O)n[nH]c3cc2Cl)ccc1C1(O)CCC1 [Example 131, 6-Chloro-5-[4-(1-hydroxycyclobutyl)-3-methoxyphenyl]-1H-indazole-3-carboxylic acid]
17.7 | 194 | – | O=C(O)c1c[nH]c2cc(F)c(-c3ccc(C4(CO)CCC4)cc3)cc12 [Example 143, 6-fluoro-5-{4-[1-(hydroxymethyl)cyclobutyl]phenyl}-1H-indole-3-carboxylic acid]
17.2 | 81 | – | O=C(O)c1n[nH]c2cc(Cl)c(-c3ccc(C4(CO)CCCC4)cc3)cc12 [Example 127, 6-Chloro-5-(4-(1-(hydroxymethyl)cyclopentyl)phenyl)-1H-indazole-3-carboxylic acid]
10.1 | 132 | – | CS(=O)(=O)NC(=O)c1c[nH]c2cc(Cl)c(-c3ccc(C4(O)CCC4)cc3)cc12 [Example 147, 6-chloro-5-[4-(1-hydroxycyclobutyl)phenyl]-N-(methylsulfonyl)-1H-indole-3-carboxamide]
9.3 | – | 119 | O=C(O)c1c[nH]c2cc(F)c(-c3ccc(C4(CO)CCC4)cc3)c(F)c12 [Example 141, 4,6-difluoro-5-(4-(1-(hydroxymethyl)cyclobutyl)phenyl)-1H-indole-3-carboxylic acid]
6.56 | 119 | – | CC(C)(CO)c1ccc(-c2cc3c(C(=O)O)c[nH]c3cc2Cl)cc1O [Example 148, 6-chloro-5-[3-hydroxy-4-(1-hydroxy-2-methylpropan-2-yl)phenyl]-1H-indole-3-carboxylic acid]
6.5 | 82 | – | O=C(O)c1c[nH]c2cc(F)c(-c3ccc(-c4ccccc4O)cc3)cc12 [Example 135, 6-fluoro-5-(2′-hydroxybiphenyl-4-yl)-1H-indole-3-carboxylic acid]
